Assay results from patent US8314113B2, “Substituted dihydroquinazolines II” (Aicuris GmbH & Co. KG, priority 2003, dated 2012).
pEC50: −log10 of the molar value. Counter-ions that a name gives are not always drawn. Like-named read-outs stand apart in the source and are kept apart here. Blank lines part the entries; values can stand above or below the molecule they belong to.

What was measured:
[1] = Cytotoxicity on NHDF cells in the anti-HCMV cytopathogenicity test; assay type: cell-based; details: NHDF cells (human prepuce fibroblasts), visual assessment, concentration at which no visible cytostatic effects are evident
Description: (§1) Anti-HCMV (Anti-Human Cytomegalovirus) Cytopathogenicity Tests The test compounds are employed as 50 millimolar (mM) solutions in dimethyl sulphoxide (DMSO). Ganciclovir, Foscarnet and Cidofovir are used as reference compounds. After addition of in each case 2 μl of the 50, 5, 0.5 and 0.05 mM DMSO stock solutions to 98 μl portions of cell culture medium in row […] for duplicate determinations, 1:2 dilutions are carried out with 50 μl portions of medium up to row 11 of the 96-well plate. The wells in rows 1 and 12 each contain 50 μl of medium. Then 150 μl portions of a suspension of 1×10^4 cells (human prepuce fibroblasts [NHDF]) are pipetted into each of the wells (row 1=cell control) and, in rows 2-12, a mixture of HCMV-infected and uninfected NHDF cells (M.O.I.=0.001-0.002), i.e. 1-2 infected cells-per 1000 uninfected cells. Row 12 (without substance) serves as virus control. The final test concentrations are 250-0.0005 μM. The plates are incubated at 37° C./5% CO2 for 6 days, i.e. until all the cells are infected in the virus controls (100% cytopathogenic effect [CPE]). The wells are then fixed and stained by adding a mixture of formalin and Giemsa's dye (30 minutes), washed with double-distilled water and dried in a drying cabinet at 50° C. The plates are then assessed visually using an overhead microscope (Plaque Multiplier from Technomara). The following data can be acquired from the test plates: CC50 (NHDF)=substance concentration in μM at which no visible cytostatic effects on the cells are evident by comparison with the untreated cell control;

[2] = test system: HCMV; test: Anti-HCMV cytopathogenicity test (CPE inhibition); assay type: cell-based, human cytomegalovirus; details: for pEC50: read-out: HCMV EC50; for SI HCMV (selectivity index = CC50 (NHDF)/EC50 (HCMV)): ratio CC50 (NHDF)/EC50 (HCMV)
Description: as §1, with “plates: EC50 (HCMV)=substance” for “plates: CC50 (NHDF)=substance”, “μM” for “μM at”, “which inhibits” for “which no visible cytostatic effects on”, “the CPE (cytopathic effect)” for “the cells are evident”, “by 50% compared” for “by comparison”, “untreated virus” for “untreated cell”

[3] = Human betaherpesvirus 5, NHDF, 144 h
[4] = Human betaherpesvirus 5, 144 h, HCMV-infected NHDF cells, M.O.I. 0.001-0.002, 6 days, 50% inhibition of CPE

Structure (SMILES): COc1ccc(C(F)(F)F)cc1N1C(C2CCN(c3ccc(F)c(C)c3)CC2)=Nc2c(F)cccc2C1CC(=O)O (racemic) [Example 1, {8-Fluoro-2-[1-(4-fluoro-3-methylphenyl)piperidin-4-yl]-3-[2-methoxy-5-(trifluoromethyl)phenyl]-3,4-dihydroquinazolin-4-yl}acetic acid hydrochloride]
CC50 at 6 days [1]: 24 µM
pEC50 [2, 3]: 7.52
SI HCMV (selectivity index = CC50 (NHDF)/EC50 (HCMV)) [2]: 800

Structure (SMILES): COc1ccc(C(F)(F)F)cc1N1C(C2CCN(c3ccc(F)c(C)c3)CC2)=Nc2c(F)cccc2C1CC(=O)O (stereo not drawn) [Example 2, {8-Fluoro-2-[1-(4-fluoro-3-methylphenyl)piperidin-4-yl]-3-[2-methoxy-5-(trifluoromethyl)phenyl]-3,4-dihydroquinazolin-4-yl}acetic acid hydrochloride]
CC50 at 6 days [1]: 31 µM
pEC50 [2, 3]: 7.40
SI HCMV (selectivity index = CC50 (NHDF)/EC50 (HCMV)) [2]: 775

pEC50 [2, 4]: 6.82
Structure (SMILES): COc1ccc(C(F)(F)F)cc1N1C(C2CCN(c3ccc(F)cc3)CC2)=Nc2c(F)cccc2C1CC(=O)O (stereo not drawn) [Example 4, {8-Fluoro-2-[1-(4-fluorophenyl)piperidin-4-yl]-3-[2-methoxy-5-(trifluoromethyl)-phenyl]-3,4-dihydroquinazolin-4-yl}acetic acid]
CC50 at 6 days [1]: 36 µM
SI HCMV (selectivity index = CC50 (NHDF)/EC50 (HCMV)) [2]: 237

pEC50 [2, 4]: 7.00
Structure (SMILES): COc1ccc(C(F)(F)F)cc1N1C(C2CCN(c3cccc(C)c3)CC2)=Nc2c(F)cccc2C1CC(=O)O (stereo not drawn) [Example 3, {8-Fluoro-3-[2-methoxy-5-(trifluoromethyl)phenyl]-2-[1-(3-methylphenyl)piperidin-4-yl]-3,4dihydroquinazolin-4-yl}acetic acid]
CC50 at 6 days [1]: 31 µM
SI HCMV (selectivity index = CC50 (NHDF)/EC50 (HCMV)) [2]: 310
